Measured values from US20260285850A1, “SUBSTITUTED OXAZOLIDINONES AND IMIDAZOLINONES AS HERBICIDES” (FMC CORPORATION, priority 2023, published 2026).

Columns and labels:
Type in all cases: in vivo
[1] = tested on: palmer (palmer amaranth, palmer pigweed, Amaranthus palmeri); assay: Test A preemergence soil spray, visual injury rating 0-100; settings: 10 days, 0 = no effect, 100 = complete control
Method in brief: (§1)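 Visual injury, scored 0-100 (100 = complete control) against untreated plants, 10 days after greenhouse treatment. Test chemicals in surfactant-containing non-phytotoxic solvent were applied in loam soil and sand, as a preemergence soil spray on seeds or postemergence to plants at the one- to two-leaf stage.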

[2] = tested on: soybean (Glycine max); assay: as above; settings: 10 days, 0 = no effect, 100 = complete control
Method in brief: as §1

[3] = tested on: ryegrass, Italian (italian ryegrass, Lolium multiflorum); assay: as above; settings: 10 days, 0 = no effect, 100 = complete control
Method in brief: as §1

[4] = tested on: kochia (Bassia scoparia); assay: as above; settings: 10 days, 0 = no effect, 100 = complete control
Method in brief: as §1

[5] = tested on: blackgrass (Alopecurus myosuroides); assay: as above; settings: 10 days, 0 = no effect, 100 = complete control
Method in brief: as §1

[6] = tested on: barnyardgrass (Echinochloa crus-galli); assay: as above; settings: 10 days, 0 = no effect, 100 = complete control
Method in brief: as §1

[7] = tested on: green foxtail (Setaria viridis); assay: as above; settings: 10 days, 0 = no effect, 100 = complete control
Method in brief: as §1

[8] = tested on: wheat (Triticum aestivum); assay: as above; settings: 10 days, 0 = no effect, 100 = complete control
Method in brief: as §1

[9] = tested on: ragweed (common ragweed, Ambrosia artemisiifolia); assay: as above; settings: 10 days, 0 = no effect, 100 = complete control
Method in brief: as §1

[10] = tested on: oat, wild (wild oat, Avena fatua); assay: as above; settings: 10 days, 0 = no effect, 100 = complete control
Method in brief: as §1

[11] = tested on: corn (Zea mays); assay: as above; settings: 10 days, 0 = no effect, 100 = complete control
Method in brief: as §1

[12] = tested on: palmer (palmer amaranth, palmer pigweed, Amaranthus palmeri); assay: Test A postemergence application, visual injury rating 0-100; settings: 10 days
Method in brief: as §1

[13] = tested on: soybean (Glycine max); assay: as above; settings: 10 days
Method in brief: as §1

[14] = tested on: ryegrass, Italian (italian ryegrass, Lolium multiflorum); assay: as above; settings: 10 days
Method in brief: as §1

[15] = tested on: kochia (Bassia scoparia); assay: as above; settings: 10 days
Method in brief: as §1

[16] = tested on: blackgrass (Alopecurus myosuroides); assay: as above; settings: 10 days
Method in brief: as §1

[17] = tested on: galium (catchweed bedstraw, Galium aparine); assay: as above; settings: 10 days
Method in brief: as §1

[18] = tested on: barnyardgrass (Echinochloa crus-galli); assay: as above; settings: 10 days
Method in brief: as §1

[19] = tested on: green foxtail (Setaria viridis); assay: as above; settings: 10 days
Method in brief: as §1

[20] = tested on: wheat (Triticum aestivum); assay: as above; settings: 10 days
Method in brief: as §1

[21] = tested on: ragweed (common ragweed, Ambrosia artemisiifolia); assay: as above; settings: 10 days
Method in brief: as §1

[22] = tested on: oat, wild (wild oat, Avena fatua); assay: as above; settings: 10 days
Method in brief: as §1

[23] = tested on: corn (Zea mays); assay: as above; settings: 10 days
Method in brief: as §1

[24] = tested on: horseweed (Erigeron canadensis); assay: as above; settings: 10 days
Method in brief: as §1

[25] = tested on: ducksalad (Heteranthera limosa); assay: Test B flooded paddy test, visual plant response rating 0-100; settings: 250 g ai/ha, Flood, applied to paddy water, evaluated after 13 days
Method in brief: (§2)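 Visual evaluation after 13 days. Water-applied treatment, 3 cm flood depth held constant, plants at 2-leaf stage at treatment.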

[26] = tested on: sedge, umbrella (small-flower umbrella sedge, Cyperus difformis); assay: as above; settings: 250 g ai/ha, Flood, applied to paddy water, evaluated after 13 days
Method in brief: as §2

[27] = tested on: rice (Oryza sativa); assay: as above; settings: 250 g ai/ha, Flood, applied to paddy water, evaluated after 13 days
Method in brief: as §2

[28] = tested on: barnyardgrass (Echinochloa crusgalli); assay: as above; settings: 250 g ai/ha, Flood, applied to paddy water, evaluated after 13 days
Method in brief: as §2

[29] = 31 g ai/ha, postemergence, 0 = no effect, 100 = complete control
[30] = Postemergence, 125 g ai/ha, 0 is no effect, 100 is complete control

## CC1(C(=O)NC2C=CC(C(=O)OCc3ccc(F)cc3)C2)CN(c2cc(F)cc(F)c2)C(=O)O1 (stereo not shown) [Compound 54]
[1]; 31 g ai/ha
  Amaranth, Palmer plant response rating (0-100): 10
[1]; 125 g ai/ha
  Amaranth, Palmer plant response rating (0 to 100 scale): 100
[2]; 31 g ai/ha
  Soybean plant response rating (0-100): 10
[2]; 125 g ai/ha
  Soybean plant response rating (0 to 100 scale): 70
[3]; 31 g ai/ha
  Ryegrass, Italian plant response rating (0-100): 50
[3]; 125 g ai/ha
  Ryegrass, Italian plant response rating (0 to 100 scale): 100
[4]; 31 g ai/ha
  Kochia plant response rating (0-100): 0
[4]; 125 g ai/ha
  Kochia plant response rating (0 to 100 scale): 90
[5]; 31 g ai/ha
  Blackgrass plant response rating (0-100): 20
[5]; 125 g ai/ha
  Blackgrass plant response rating (0 to 100 scale): 60
[6]; 31 g ai/ha
  Barnyardgrass plant response rating (0-100): 30
[6]; 125 g ai/ha
  Barnyardgrass plant response rating (0 to 100 scale): 100
[7]; 31 g ai/ha
  Foxtail, Green plant response rating (0-100): 0
[7]; 125 g ai/ha
  Foxtail, Green plant response rating (0 to 100 scale): 30
[8]; 31 g ai/ha
  Wheat plant response rating (0-100): 80
[8]; 125 g ai/ha
  Wheat plant response rating (0 to 100 scale): 90
[9]; 31 g ai/ha
  Ragweed plant response rating (0-100): 0
[9]; 125 g ai/ha
  Ragweed plant response rating (0 to 100 scale): 0
[10]; 31 g ai/ha
  Oat, Wild plant response rating (0-100): 0
[10]; 125 g ai/ha
  Oat, Wild plant response rating (0 to 100 scale): 90
[11]; 31 g ai/ha
  Corn plant response rating (0-100): 0
[11]; 125 g ai/ha
  Corn plant response rating (0 to 100 scale): 30
[12]; [29]
  Amaranth, Palmer plant response rating (0-100): 90
[12]; [30]
  Amaranth, Palmer / Pigweed, Palmer plant response rating (0 to 100 scale): 100
[13]; [29]
  Soybean plant response rating (0-100): 60
[13]; [30]
  Soybean plant response rating (0 to 100 scale): 60
[14]; [29]
  Ryegrass, Italian plant response rating (0-100): 70
[14]; [30]
  Ryegrass, Italian plant response rating (0 to 100 scale): 90
[15]; [29]
  Kochia plant response rating (0-100): 70
[15]; [30]
  Kochia plant response rating (0 to 100 scale): 90
[16]; [29]
  Blackgrass plant response rating (0-100): 80
[16]; [30]
  Blackgrass plant response rating (0 to 100 scale): 90
[17]; [29]
  Galium plant response rating (0-100): 80
[17]; [30]
  Galium plant response rating (0 to 100 scale): 80
[18]; [29]
  Barnyardgrass plant response rating (0-100): 70
[18]; [30]
  Barnyardgrass plant response rating (0 to 100 scale): 100
[19]; [29]
  Foxtail, Green plant response rating (0-100): 40
[19]; [30]
  Foxtail, Green plant response rating (0 to 100 scale): 60
[20]; [29]
  Wheat plant response rating (0-100): 90
[20]; [30]
  Wheat plant response rating (0 to 100 scale): 90
[21]; [29]
  Ragweed plant response rating (0-100): 50
[21]; [30]
  Ragweed plant response rating (0 to 100 scale): 60
[22]; [29]
  Oat, Wild plant response rating (0-100): 90
[22]; [30]
  Oat, Wild plant response rating (0 to 100 scale): 100
[23]; [29]
  Corn plant response rating (0-100): 90
[23]; [30]
  Corn plant response rating (0 to 100 scale): 100
[24]; [29]
  Horseweed plant response rating (0-100): 20
[24]; [30]
  Horseweed plant response rating (0 to 100 scale): 80
[25]
  Plant response rating, Ducksalad (0 to 100 scale, 0 is no effect and 100 is complete control): 95
[26]
  Plant response rating, Sedge, Umbrella (0 to 100 scale, 0 is no effect and 100 is complete control): 95
[27]
  Plant response rating, Rice (0 to 100 scale, 0 is no effect and 100 is complete control): 15
[28]
  Plant response rating, Barnyardgrass (0 to 100 scale, 0 is no effect and 100 is complete control): 90
